Laboratory results taken from patent US7879870B2, “Treatment of inflammatory and ulcerative diseases of the bowel with opioid antagonists” (priority 2006, dated 2011).
“Also recorded” adds a separate entry of the source. Counter-ions that a name gives are not always drawn.

Legend:
[1] = system: patients with active Crohn's disease; test: Open-labeled pilot trial of LDN in active Crohn's disease: CDAI score, response, remission, fistulas; assay type: in vivo, human
Source text: In the following detailed example, low dose naltrexone, an opioid antagonist, is shown to be a safe and effective treatment for Crohn's disease. In a human clinical experiment, eligible patients were both male and female, at least eighteen years of age, and with the confirmed diagnosis of Crohn's disease by either endocopic or radiographic procedures. Patients had moderate to severely active disease as defined by a Crohn's Disease Activity Index (CDAI score) of >220 and <450. See, Best, et al., “Development of a Crohn's disease activity index. National Cooperative Crohn's Disease Study,” Gastroenterology 70, 439-44 (1976). Patients taking stable doses of aminosalicylates, immunomodulators, corticosteroids, or antibiotics were permitted to enter the study, and they were continued at the same dosage throughout the trial. Women of childbearing age were permitted to enroll and, if not surgically sterile, were required to use adequate contraception (defined as oral or depot contraceptive, IUD, or barrier plus spermicide) for the duration of the study. These women were required to continue adequate contraception for three months after the completion of the study. Exclusion criteria included women who were pregnant or breastfeeding, subjects with an ileostomy, colostomy, ileorectal anastomosis, or short bowel syndrome from surgery, and patients with abnormal liver function tests. Subjects taking tacrolimus, cyclosporine, mycophenolate, or infliximab within eight weeks of enrollment were excluded.
(§1) Eligibility was assessed by telephone, and potential candidates were scheduled for a screening visit. At the screening visit, patients were subjected to a history and physical examination and laboratory testing (chemistry panel, complete blood count [“CBC”], urinalysis, and erythrocyte sedimentation rate [“ESR”]). Patients were dispensed a seven-day diary to record symptoms of frequency of diarrhea, abdominal pain, and general well-being. Within fourteen days, patients returned for assessment and calculation of the CDAI score. Qualifying subjects were dispensed medication and given a new diary in order to calculate the subsequent month's CDAI score at the conclusion of this visit (baseline). Patients returned after two weeks for an interim visit to evaluate side effects and perform a CBC. Follow-up visits were scheduled for weeks 4, 8, 12, and 16.
Quality assurance of packaging and purity were confirmed an analytical research laboratory. Patients were treated with LDN orally each evening for three months. A monthly supply of medication was dispensed to patients. On the first visit, an additional ten-day supply of LDN was provided in the event of an appointment delay. Subjects were required to bring the vials to each appointment for counting and drug accountability; extra capsules were returned on the day of the visit and another month's supply dispensed. […]
(§2) An intent-to-treat analysis was performed in which the available data from all evaluable patients were included in the statistical analysis. The parameters of measurement (CDAI scores, laboratory values, and quality of life surveys) were analyzed by a biostatistician comparing baseline values to those obtained monthly and four weeks post-therapy. A longitudinal data analysis based upon the linear mixed-effects model was applied using PROC MIXED program (available from SAS Institute Inc., Cary, N.C.). The Bonferroni statistical method was used to adjust significance where analysis including multiple comparisons to the baseline were made. P-values for binary outcomes response and remission were calculated using the exact test for binomial proportions.

[2] = system: patients with active Crohn's disease; test: Open-labeled pilot trial of LDN: safety and toxicity (adverse events, body weight); assay type: in vivo, human
Procedure: as §1
Nonhematologic and hematologic toxicity were determined by the WHO criteria. See, Oken, et al., “Toxicity and response criteria of the Eastern Cooperative Oncology Group,” Am. J. Clin. Oncol. 5(6), 649-55 (1982).

human subjects = test: Double-blinded placebo-controlled Phase II clinical trial, adverse events; assay type: in vivo; conditions: as of the date of application
[3] = system: patients with active Crohn's disease; test: Open-labeled pilot trial of LDN: quality of life surveys (IBDQ, SF-36 Health Survey); assay type: in vivo, human
Procedure: as §1
Quality assurance of packaging and purity were confirmed an analytical research laboratory. Patients were treated with LDN orally each evening for three months. A monthly supply of medication was dispensed to patients. On the first visit, an additional ten-day supply of LDN was provided in the event of an appointment delay. Subjects were required to bring the vials to each appointment for counting and drug accountability; extra capsules were returned on the day of the visit and another month's supply dispensed.
To assess quality of life, patients completed two standardized quality of life surveys, the Inflammatory Bowel Disease Questionnaire (“IBDQ”) and SF-36 Health Survey. See, Irvine, et al., “Quality of life: a valid and reliable measure of therapeutic efficacy in the treatment of inflammatory bowel disease. Canadian Crohn's Relapse Prevention Trial Study Group,” Gastroenterology 106(2), 287-96 (1994); Brazier, et al., “Validating the SF-36 health survey questionnaire: new outcome measure for primary care,” BMJ305(6846), 160-04 (1992).
as §2

[4] = one month (week 4) of LDN 4.5 mg/day
[5] = week 16, four weeks after discontinuation of LDN

For O=C1CC[C@@]2(O)[C@H]3Cc4ccc(O)c5c4[C@@]2(CCN3CC2CC2)[C@H]1O5 [LDN, Naltrexone hydrochloride], the “Fistulas in the two subjects with fistulas” value ([1]; LDN therapy, not previously responded to infliximab, hydrochloride) was “closure of the fistulas”, the “Enrolled patients who achieved remission (fraction in words)” value ([1]; at some point during LDN treatment) was “Two-thirds” and the “Patients who achieved a remission” value ([1]; at some point during the 16-week trial) was 67%. For the same compound, the “CDAI scores versus baseline (in words)” value ([1]; four weeks after completing therapy, hydrochloride) was “remained lower than baseline; also recorded: continued improvement in CDAI scores”, the “CDAI scores with LDN versus baseline (in words)” value ([1]; on therapy, 4.5 mg/day, baseline mean CDAI 356±27) was “decreased significantly” and the “Patients in remission (CDAI score of 150 points or less)” value (shortened to “Patients in remission”) [1, 4] was 29%. The “Patients with response to therapy (decrease in CDAI score by 70 points)” value (“Patients … (decrease in CDAI score by 70 points)” for short) [1, 4] was 76%, the “Mean CDAI score, decrease from baseline” value ([1]; week 4 of LDN 4.5 mg/day by mouth each evening, 17 patients) was 41% and the “Patients in remission” value ([1]; week 8 of LDN) was 53%. The “Patients … (decrease in CDAI score by 70 points)” value ([1]; week 8 of LDN) was 88%, the “Mean CDAI score, decrease from baseline” value ([1]; week 8 of LDN 4.5 mg/day) was 55% and the “Patients in remission” value ([1]; week 12 of LDN) was 47%. The “Patients … (decrease in CDAI score by 70 points)” value ([1]; week 12 of LDN) was 88%, the “Mean CDAI score, decrease from baseline” value ([1]; week 12 of LDN 4.5 mg/day) was 49% and the “Mean CDAI score, less than baseline” value [1, 5] was 45%. The “Patients in remission” value [1, 5] was 33%, the “Patients … (decrease in CDAI score by 70 points)” value [1, 5] was 73% and the “Sleep disturbances, number of patients” value ([2]; 17 patients enrolled) was 7 patients. For the same compound, the “Subjects who changed timing of LDN from evening to morning due to insomnia” value ([2]; 17 patients enrolled) was “Five”, the “Unusual dreams, number of patients reporting” value ([2]; 17 patients enrolled) was “one” and the “Dose reduction for sleep disturbances” value ([2]; in vivo) was “In no instance was a dose reduction necessary”. The Safety profile ([2]; pilot study, 4.5 mg daily) was “infrequent and minor side effects and no known suppression of immunity or increased risk of secondary infections”, the Body weight ([2]; screening visit through week 16) was “no significant change in body weight” and the Serious adverse events (human subjects) was “has not revealed any serious adverse events”. For the same compound, the “SF-36 physical function, greater than baseline” value ([3]; 4 and 8 weeks of LDN) was 23%, the “Quality of life by both surveys (IBDQ and SF-36) compared to baseline” value ([3]; on LDN therapy) was “significant improvement; also recorded: improved the quality of life” and the “SF-36 health perception, greater than baseline” value ([3]; week 8 of LDN) was 33%. For the same compound, the “SF-36 health perception, greater than baseline” value ([3]; week 12 of LDN) was 49%, the “SF-36 social function, greater than baseline” value ([3]; weeks 4, 8 and 12, only statistically different at week 8) was 70% and the “SF-36 bodily pain, improvement” value ([3]; weeks 4, 8 and 12 of LDN) was 61-65%. The “SF-36 emotional health versus baseline” value ([3]; weeks 4, 8 and 12 of LDN) was “comparable to baseline values”, the “SF-36 physical role scores, improvement” value ([3]; weeks 4, 8 and 12 of LDN) was 5- to 8 fold and the “SF-36 role-emotional versus baseline” value ([3]; weeks 4, 8 and 12 of LDN) was “comparable to baseline values”. The “IBDQ survey, quality of life compared to baseline” value ([3]; weeks 4, 8 and 12 on LDN and one month after completion) was “significant improvement in quality of life” and the “SF-36 energy scores, greater than at initiation of therapy” value ([3]; weeks 8 and 12 of LDN) was “at least 2 fold”.
